# Assay results published in patent US9032821B2, “Articles for screening insect pest-repellents and uses thereof” (National Taiwan University, priority 2012, dated 2015).
# “And” between values parts separate entries of the source, which are not always exact repeats. Equal entries are not always repeated.
# Columns and labels:
# Type in all cases: in vivo
# fleas [1] = assay: Flea repellent test, blunt-end filter paper article in flat surface tube (inverted centrifuge tube); conditions: 20 fleas, counted after 30 min, tests #1-3
# Excerpt: (§1) Two types of filter paper articles were constructed. Specifically, article with two blunt ends (herein after “blunt-end article”) and article with one tapered end and one blunt end (herein after “tapered-end article”), were constructed in accordance with the procedures depicted in FIG. 2, except minor modifications for the blunt-end article, in which each of the two filter paper stripes were not cut diagonally from one end, and therefore both ends remained blunt after the two filter paper stripes were adhered. Repellents test were then conducted using the respective articles so as to develop an improved system and/or method for screening a candidate insect pest-repellent.
# fleas [2] = assay: Flea repellent test, tapered-end filter paper article in concave surface (round-ended glass) tube
# Excerpt: as §1
# fleas [3] = assay: Screening of essential oils as flea-repellents, tapered-end article in round-ended tube, repellency (PR %); conditions: concentration of about 1% (wt %)
# Excerpt: In another aspect, a method of screening a candidate insect pest-repellant using the article 100 of FIG. 1 is provided. Referring again to FIG. 2, during the operation of screening an effective insect pest-repellent, a few drops of a candidate insect pest-repellent solution and a control solution (e.g., a buffer or water) are respectively applied onto the two paper strips (i.e., the first and second paper strips (110, 120) respectively having the first and second tapered ends (111, 121)), and allowed them to spread evenly throughout the respective papers. The two paper strips (110, 120) are then let standing for a few minutes to dry. […] In one example, the entire set up (i.e., including the article 100, the tube 140 and the fleas) is let stand for at least 30 min, before the number of insect pests on respective paper strips (110, 120) are counted. Repellency (PR %) of the candidate insect pest-repellent is determined by the following equation, […]
# The article was let stand for about 30 min until it was dried. […] After 30 min, the numbers of fleas on respective sides of the filtered paper article was then counted. Repellency (PR %) of each candidate essential oils was calculated in accordance with the following equation, […]
# [4] = tapered end article + concave surface tube, 20 fleas, counted after 30 min, tests #1-3
SMILES,number of fleas in the Bottom of the tube (fleas [1]),number of fleas on Control (untreated) side of the article (fleas [1]),number of fleas on Treated side of the article (fleas [1]),"repellent activity towards fleas (fleas [2]; in words, from Table 1, compared with the two commercial flea repellents)",number of fleas on Control (untreated) side of the article (fleas [2]; [4]),number of fleas on Treated side of the article (fleas [2]; [4]),repellency (fleas [3])
"CCO [75% Ethanol, ethanol]",4 and 2 and 3,10 and 8 and 6,6 and 10 and 11,no repellent activity,9 and 11,9 and 11 and 8,
O=CC=Cc1ccccc1 [cinnamaldehyde],,,,,,,at least 97%
